Holding throughout (type): cell-based
The target of one experiment is T1, vanilloid receptor (VR1) (Homo sapiens, UniProt Q8NER1).
T1 construct: expressed in transfected cells; host or cells: CHO K1 cells (ECACC), stably transfected
Put plainly: FLIPR Ca2+ influx assay on CHO K1 cells transfected with the VR1 gene (pharmacological method II).

Experiment [1] deals with T2, vanilloid receptor 1 (VR1/TRPV1) of the rat species (Rattus norvegicus, UniProt O35433).
T2 construct: The spinal column is removed from decapitated rats; from tissue; host or cells: primary cells dissociated from rat dorsal root ganglia
T2 sequence (O35433 whole entry): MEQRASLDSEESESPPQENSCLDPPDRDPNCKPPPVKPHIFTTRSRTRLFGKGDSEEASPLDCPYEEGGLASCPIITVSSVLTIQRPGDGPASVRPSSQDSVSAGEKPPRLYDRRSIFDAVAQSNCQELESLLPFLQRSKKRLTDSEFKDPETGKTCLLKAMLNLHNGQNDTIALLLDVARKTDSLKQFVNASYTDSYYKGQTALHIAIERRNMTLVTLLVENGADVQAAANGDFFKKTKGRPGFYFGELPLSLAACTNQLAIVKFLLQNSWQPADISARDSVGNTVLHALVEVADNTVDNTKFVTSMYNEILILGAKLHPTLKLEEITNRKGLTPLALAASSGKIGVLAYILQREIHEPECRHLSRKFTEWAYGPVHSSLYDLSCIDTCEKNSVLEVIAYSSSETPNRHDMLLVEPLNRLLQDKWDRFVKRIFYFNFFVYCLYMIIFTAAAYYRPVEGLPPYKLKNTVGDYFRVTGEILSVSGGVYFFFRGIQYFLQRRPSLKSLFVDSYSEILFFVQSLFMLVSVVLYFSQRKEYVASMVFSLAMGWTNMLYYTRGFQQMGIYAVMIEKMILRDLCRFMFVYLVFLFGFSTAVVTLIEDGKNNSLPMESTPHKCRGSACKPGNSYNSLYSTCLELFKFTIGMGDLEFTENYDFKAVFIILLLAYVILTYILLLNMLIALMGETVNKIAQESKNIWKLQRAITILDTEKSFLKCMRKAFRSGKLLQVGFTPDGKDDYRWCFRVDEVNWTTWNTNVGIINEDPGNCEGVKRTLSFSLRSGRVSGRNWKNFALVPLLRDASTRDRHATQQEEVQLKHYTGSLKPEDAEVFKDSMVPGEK
Put plainly: FLIPR Ca2+ influx assay on rat dorsal root ganglia cells (pharmacological method I). The procedure, abridged:
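Primary rat dorsal root ganglion cells loaded with 2 μM Fluo-4, Ca2+ influx read on FLIPR as peak fluorescence. Triplicates, at least 3 independent experiments.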

The target of a further experiment is VR1/TRPV1 receptor (Homo sapiens, UniProt Q8NER1). Put plainly: IC50 (human) after pH stimulus. The note with it: for inhibition at 1 µM: ne = no effect.
Sequence of VR1/TRPV1 receptor (Q8NER1 whole entry): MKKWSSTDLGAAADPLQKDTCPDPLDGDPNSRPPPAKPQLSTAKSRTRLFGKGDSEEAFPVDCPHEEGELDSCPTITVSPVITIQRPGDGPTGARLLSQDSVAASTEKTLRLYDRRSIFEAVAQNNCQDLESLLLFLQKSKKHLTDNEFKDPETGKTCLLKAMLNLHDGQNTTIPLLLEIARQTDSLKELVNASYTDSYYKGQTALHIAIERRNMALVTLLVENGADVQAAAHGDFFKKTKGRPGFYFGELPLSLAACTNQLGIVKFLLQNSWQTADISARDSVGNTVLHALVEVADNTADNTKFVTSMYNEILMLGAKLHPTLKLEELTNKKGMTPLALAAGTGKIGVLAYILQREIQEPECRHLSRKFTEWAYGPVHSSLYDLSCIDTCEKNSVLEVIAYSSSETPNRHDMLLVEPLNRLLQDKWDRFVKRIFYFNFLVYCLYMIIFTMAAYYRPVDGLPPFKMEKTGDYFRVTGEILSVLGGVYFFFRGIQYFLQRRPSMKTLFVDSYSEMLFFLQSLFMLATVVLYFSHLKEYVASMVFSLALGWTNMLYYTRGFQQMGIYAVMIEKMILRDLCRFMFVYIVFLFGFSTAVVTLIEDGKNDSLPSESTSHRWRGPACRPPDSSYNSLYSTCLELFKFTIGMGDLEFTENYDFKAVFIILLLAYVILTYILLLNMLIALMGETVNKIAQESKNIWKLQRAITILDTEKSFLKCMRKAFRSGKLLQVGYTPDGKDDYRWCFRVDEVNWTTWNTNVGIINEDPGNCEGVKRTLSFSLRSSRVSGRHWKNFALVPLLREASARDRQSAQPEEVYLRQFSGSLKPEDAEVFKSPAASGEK
Setting [2] is: table 4, capsaicin, read-out: Ki (human) Cap.
Where [3] appears, read: table 4, capsaicin, read-out: Ki (rat) Cap.
Where [4] appears, read: read-out: inhibition in percent, IC50 (human) after pH stimulus.
Where [5] appears, read: Table 2, displacement of capsaicin (100 nM), Cheng-Prusoff, read-out: Ki (human).
[6] abbreviates: Table 2, displacement of capsaicin (100 nM), Cheng-Prusoff, read-out: Ki (rat).

Where two headings read alike, the source gives them in different places.

T1 sequence (Q8NER1 whole entry): as above

One may read the Ki as the dissociation constant of the complex between target and ligand, obtained from inhibition or displacement. By IC50 is commonly meant the concentration at which inhibition is half-maximal. For the molecule `CC(C(=O)NCc1ccc(C(F)(F)F)nc1N1CCC(c2ccc(F)cc2)CC1)c1ccc(NS(C)(=O)=O)c(F)c1` (stereo not drawn) [Example 200, 2-(3-fluoro-4-methylsulfonamido-phenyl)-N-[4-(4-fluoro-phenyl)-6′-trifluoromethyl-3,4,5,6-tetrahydro-2H-[1,2′]bipyridinyl-3′-ylmethyl]-propionamide], the Ki was found to be 4.2 nM on vanilloid receptor (VR1) (setting [2]) and 3.4 nM in experiment [1] (setting [3]). Moreover, the IC50 against VR1/TRPV1 receptor (table 4) was determined as 81 nM.
What is called inhibition is the percentage by which the read-out fell short of the control. Turning to `CC(C(=O)NCc1ccc(C(F)(F)F)nc1N1CCC(CN(C)C)(c2ccccc2)CC1)c1ccc(NS(C)(=O)=O)c(F)c1` (stereo not drawn) [Example 259, N-(4-dimethylaminomethyl-4-phenyl-6′-trifluoromethyl-3,4,5,6-tetrahydro-2H-[1,2′]bipyridinyl-3′-ylmethyl)-2-(3-fluoro-4-methylsulfonamido-phenyl)-propionamide], the results for the Ki (at vanilloid receptor (VR1) (setting [2]); in experiment [1] (setting [3])) were 15.4 nM and 22.8 nM, respectively. Besides, the inhibition at 1 µM on VR1/TRPV1 receptor (setting [4]) was 51%. In addition, the inhibition at 10 µM at VR1/TRPV1 receptor (@ 10 μM, read-out: inhibition in percent, IC50 (human) after pH stimulus) was determined as 47%.
Regarding `CC(C(=O)NCc1ccc(C(F)(F)F)nc1N1CCC(C)(C)CC1)c1ccc(NS(C)(=O)=O)c(F)c1` (stereo not drawn) [Example 210, N-(4,4-dimethyl-6′-trifluoromethyl-3,4,5,6-tetrahydro-2H-[1,2′]bipyridinyl-3′-ylmethyl)-2-(3-fluoro-4-methylsulfonamido-phenyl)-propionamide], the figures for the Ki (at vanilloid receptor (VR1) (setting [2]); in experiment [1] (setting [3])) were 0.3 nM and 0.2 nM, respectively. For the same molecule, the IC50 on VR1/TRPV1 receptor (table 4) is 8 nM.
Take `Cc1cc(C(C)C(=O)NCc2ccc(C(F)(F)F)nc2N2CCN(c3ccccc3)CC2)ccc1NS(C)(=O)=O` (stereo not drawn) [Example 203, 2-(4-methylsulfonamido-3-methyl-phenyl)-N-[2-(4-phenyl-piperazin-1-yl)-6-trifluoromethyl-pyridin-3-ylmethyl]-propionamide]: the Ki on vanilloid receptor (VR1) (setting [2]) was found to be 3 nM. The Ki in experiment [1] (setting [3]) was 3.3 nM. In addition, on VR1/TRPV1 receptor (setting [4]), the inhibition at 0.1 µM came to 0% and the inhibition at 1 µM stood at 24%.
As to `CC(C(=O)NCc1ccc(C(F)(F)F)nc1N1CCN(c2ccccn2)CC1)c1ccc(NS(C)(=O)=O)c(F)c1` (stereo not drawn) [Example 214, 2-(3-fluoro-4-methylsulfonamido-phenyl)-N-[2-(4-pyridin-2-yl-piperazin-1-yl)-6-trifluoromethyl-pyridin-3-ylmethyl]-propionamide], the results for the Ki (on vanilloid receptor (VR1) (setting [2]); in experiment [1] (setting [3])) were 1.4 nM and 1.5 nM, respectively. Besides, the IC50 on VR1/TRPV1 receptor (table 4) was 108 nM.
For the molecule `CC(C(=O)NCc1ccc(C(F)(F)F)nc1N1CCN(c2ccccc2)CC1)c1ccc(NS(C)(=O)=O)c(F)c1` (stereo not drawn) [Example 109, 2-(3-fluoro-4-methylsulfonamido-phenyl)-N-[2-(4-phenyl-piperazin-1-yl)-6-trifluoromethyl-pyridin-3-ylmethyl]-propionamide], the Ki on vanilloid receptor (VR1) (setting [2]) was found to be 0.7 nM; in experiment [1] (setting [3]), 0.6 nM. Besides, the IC50 against VR1/TRPV1 receptor (table 4) stood at 30.7 nM.
Turning to `Cc1ccc(CCc2nc(C(F)(F)F)ccc2CNC(=O)C(C)c2ccc(NS(C)(=O)=O)c(F)c2)cc1` (stereo not drawn) [Example 264, 2-(3-fluoro-4-methylsulfonamido-phenyl)-N-[2-(2-p-tolyl-ethyl)-6-trifluoromethyl-pyridin-3-ylmethyl]-propionamide], the Ki at vanilloid receptor (VR1) (setting [2]) stood at 0.6 nM; in experiment [1] (setting [3]) it was 0.9 nM. Further, on VR1/TRPV1 receptor (table 4), the IC50 was 15.9 nM.
Taken in the same sequence, the figures for `CC(C(=O)NCc1ccc(C(C)(C)C)cc1OC1CCCC1)c1ccc(NS(C)(=O)=O)c(F)c1` (stereo not drawn) [Example 155, N-(4-tert-butyl-2-cyclopentyloxy-benzyl)-2-(3-fluoro-4-methylsulfonamido-phenyl)-propionamide] were 1.8 nM, 0.8 nM and 145 nM.
On the same counts, the results for `CC(C(=O)NCc1ccc(C(F)(F)F)nc1N1CCN(c2ccc(C(F)(F)F)cc2)CC1)c1ccc(NS(C)(=O)=O)c(F)c1` (stereo not drawn) [Example 222, 2-(3-fluoro-4-methylsulfonamido-phenyl)-N-{6-trifluoromethyl-2-[4-(4-trifluoromethyl-phenyl)-piperazin-1-yl]-pyridin-3-ylmethyl}propionamide] are 3.4 nM, 2.4 nM and 39.2 nM.
Consider `C[C@H](C(=O)NCc1ccc(C(F)(F)F)nc1N1CCOCC1)c1ccc(NS(C)(=O)=O)c(F)c1` [Example 72, (S)-2-(3-Fluor-4-(methylsulfonamido)phenyl)-N-((2-morpholino-6-(trifluoromethyl)pyridin-3-yl)methyl)propanamide], for which the Ki at vanilloid receptor (VR1) (setting [5]) amounted to 32.6 nM; in experiment [1] (setting [6]), 124 nM. Further, inhibition against VR1/TRPV1 receptor (Table 2) was half-maximal at 1660 nM (IC50).
As to `CC(C(=O)NCc1ccc(C(F)(F)F)nc1NCc1ccccc1)c1ccc(NS(C)(=O)=O)c(F)c1` (stereo not drawn) [Example 115, N-(2-benzylamino-6-trifluoromethyl-pyridin-3-ylmethyl)-2-(3-fluoro-4-methylsulfonamido-phenyl)-propionamide], the Ki at vanilloid receptor (VR1) (setting [2]) worked out at 15.8 nM; in experiment [1] (setting [3]), 10.9 nM. Further, the IC50 against VR1/TRPV1 receptor (table 4) is 203 nM.
On the same counts, the results for `CCCCCOc1cc(C(C)(C)C)ccc1CNC(=O)C(C)c1ccc(NS(C)(=O)=O)c(F)c1` (stereo not drawn) [Example 153, N-(4-tert-butyl-2-pentyloxy-benzyl)-2-(3-fluoro-4-methylsulfonamido-phenyl)-propionamide] are 2.2 nM, 0.7 nM and 92.4 nM.
In the case of `CC(C)COc1nc(C(F)(F)F)ccc1CNC(=O)C(C)c1ccc(NS(C)(=O)=O)c(F)c1` (stereo not drawn) [Example 95, 2-(3-fluoro-4-methylsulfonamido-phenyl)-N-(2-isobutoxy-6-trifluoromethyl-pyridin-3-ylmethyl)-propionamide], the Ki at vanilloid receptor (VR1) (setting [2]) was 0.5 nM; in experiment [1] (setting [3]) it was 0.8 nM. Also, inhibition against VR1/TRPV1 receptor (table 4) was half-maximal at 52.6 nM (IC50).
As to `CC(C(=O)NCc1ccc(C(F)(F)F)nc1-c1ccccc1)c1ccc(NS(C)(=O)=O)c(F)c1` (stereo not drawn) [Example 22, 2-(3-fluoro-4-(methylsulfonamido)phenyl)-N-((2-phenyl-6-(trifluoromethyl)pyridin-3-yl)methyl)propanamide], the Ki on vanilloid receptor (VR1) (setting [5]) came out at 6.4 nM; in experiment [1] (setting [6]), 4.9 nM. On VR1/TRPV1 receptor (Table 2), this molecule came in with an IC50 of 62 nM.
With `CCCCCCOc1nc(C(F)(F)Cl)ccc1CNC(=O)C(C)c1ccc(NS(C)(=O)=O)c(F)c1` (stereo not drawn) [Example 180, N-[6-(chloro-difluoro-methyl)-2-hexyloxy-pyridin-3-ylmethyl]-2-(3-fluoro-4-methylsulfonamido-phenyl)-propionamide], the Ki stood at 0.8 nM on vanilloid receptor (VR1) (setting [2]) and 0.3 nM in experiment [1] (setting [3]). The molecule also had an IC50 at VR1/TRPV1 receptor (table 4) of 22.8 nM.
Taken in the same sequence, the figures for `CC(=O)OC1CCN(c2nc(C(F)(F)F)ccc2CNC(=O)C(C)c2ccc(NS(C)(=O)=O)c(F)c2)CC1` (stereo not drawn) [Example 158, acetic acid 3′-{[2-(3-fluoro-4-methylsulfonamido-phenyl)-propionylamino]-methyl}-6′-trifluoromethyl-3,4,5,6-tetrahydro-2H-[1,2′]bipyridinyl-4-yl ester] were 4 nM, 12.6 nM and 139 nM.
In the case of `CC(C(=O)NCc1ccc(C(F)(F)F)cc1OC1CCCCC1)c1ccc(NS(C)(=O)=O)c(F)c1` (stereo not drawn) [Example 238, N-(2-cyclohexyloxy-4-trifluoromethyl-benzyl)-2-(3-fluoro-4-methylsulfonamido-phenyl)-propionamide], the Ki on vanilloid receptor (VR1) (setting [2]) stood at 0.7 nM. Besides, in experiment [1] (setting [3]), the Ki amounted to 0.6 nM. Also, at VR1/TRPV1 receptor (setting [4]), the inhibition at 0.1 µM stood at 39% and the inhibition at 1 µM was 55%.

(Values after patent US8710233B2 (Gruenenthal GmbH, priority 2005, dated 2014).)
